These results are taken from patent US11072584B2, “Carbon monoxide releasing norbornenone compounds” (OTAGO INNOVATION LIMITED, priority 2015, dated 2021).

Where a name gives a salt, the structure may show the parent alone.

System in the first data set: not listed separately
The data set is described as follows: Solubility in water. It is filed as physicochemical. The conditions noted are these: water or physiological buffers.
For `COC(=O)[C@@H](N)CCCCN1C(=O)C2C3(C)C(=O)C(C)(C(c4ccccc4)=C3c3ccccc3)C2(Br)C1=O` (stereo partly drawn) [oCOm-30, Methyl (2S)-2-amino-6-(3a-bromo-4,7-dimethyl-1,3,8-trioxo-5,6-diphenyl-1,3,3a,4,7,7a-hexahydro-2H-4,7-methanoisoindol-2-yl)hexanoate Trifluoroacetic Acid Salt], the “solubility (in words)” value is reported as “water soluble”.

System in the next data set: not given
Assay: not given
Settings: not given
In turn, `CC12C(=O)C(C)(C(c3ccccc3)=C1c1ccccc1)C1(Sc3ccccc3)C(=O)N(c3ccccc3)C(=O)C21` (stereo not drawn) [oCOm-4, 3a-Phenylthio-3a,4,7,7a-tetrahydro-4,7-dimethyl-2,5,6-triphenyl-4,7-methano-1H-isoindole-1,3,8(2H)-trione] returned a melting point of 193 °C.
With `Cc1c2c(c(C)c(-c3ccccc3)c1-c1ccccc1)C(=O)N(c1ccc(O)c([N+](=O)[O-])c1)C2=O` [BP-11, 2-(4-Hydroxy-3-nitrophenyl)-4,7-dimethyl-5,6-diphenyl-1H-isoindole-1,3(2H)-dione], the melting point is greater than 250 °C.
As for `CC12C(=O)C(C)(C(c3ccccc3)=C1c1ccccc1)C1([S+]([O-])c3ccccc3)C(=O)N(c3ccccc3)C(=O)C21` (stereo not drawn) [oCOm-5, 3a-Phenylsulfinyl-3a,4,7,7a-tetrahydro-4,7-dimethyl-2,5,6-triphenyl-4,7-methano-1H-isoindole-1,3,8(2H)-trione], the melting point came out at 186 °C.
Turning to `Cc1c2c(c(C)c(-c3ccccc3)c1-c1ccccc1)C(=O)N(CCC(=O)NCCNC(=O)OC(C)(C)C)C2=O` [BP-18, Tert-Butyl (2-(3-(4,7-dimethyl-1,3-dioxo-5,6-diphenylisoindolin-2-yl)propanamido)ethyl)carbamate], the melting point is 183 to 185 °C.
Still for that read-out and setting: under `CC12C(=O)C(C)(C(c3ccccc3)=C1c1ccccc1)C1(S(=O)(=O)c3ccccc3)C(=O)N(c3ccccc3)C(=O)C21` (stereo not drawn) [oCOm-6, 3a-Phenylsulfonyl-3a,4,7,7a-tetrahydro-4,7-dimethyl-2,5,6-triphenyl-4,7-methano-1H-isoindole-1,3,8(2H)-trione] stands 106 °C.
On the same count and under the same terms, under `CC12C(=O)C(C)(C(c3ccccc3)=C1c1ccccc1)C1(Cl)C(=O)N(c3ccccc3)C(=O)C21` (stereo not drawn) [oCOm-2, 3a-Chloro-3a,4,7,7a-tetrahydro-4,7-dimethyl-2,5,6-triphenyl-4,7-methano-1H-isoindole-1,3,8(2H)-trione] stands 182 to 184 °C.
`CC12C(=O)C(C)(C(c3ccccc3)=C1c1ccccc1)C1(Br)C(=O)N(c3ccc(O)c([N+](=O)[O-])c3)C(=O)C21` (stereo not drawn) [oCOm-11, 3a-Bromo-3a,4,7,7a-tetrahydro-4,7-dimethyl-2-(4-hydroxy-3-nitrophenyl)-5,6-diphenyl-4,7-methano-1H-isoindole-1,3,8(2H)-trione]: the melting point was 207 °C (dec.).
As to `CC(=O)OC[C@H]1O[C@@H](Oc2ccc(N3C(=O)c4c(C)c(-c5ccccc5)c(-c5ccccc5)c(C)c4C3=O)cc2)[C@H](OC(C)=O)[C@@H](OC(C)=O)[C@@H]1OC(C)=O` [BP-14, N-(4-O-(2,3,4,6-tetra-O-acetyl-β-D-glucopyranosyl)phenyl)-3,6-dimethyl-4,5-diphenyl-3,6-phthalimide], the melting point is 113 to 115 °C.
On the same count and under the same terms, under `Cc1c2c(c(C)c(-c3ccccc3)c1-c1ccccc1)C(=O)N(CCN(CCNC(=O)OC(C)(C)C)C(=O)OC(C)(C)C)C2=O` [BP-22, Tert-Butyl (3-((tert-butoxycarbonyl)amino)ethyl)(2-(4,7-dimethyl-1,3-dioxo-5,6-diphenylisoindolin-2-yl)ethyl)carbamate] stands 202 to 205 °C.
In the case of `CC(C)(C)OC(=O)N[C@@H](CCCCN1C(=O)C2C3(C)C(=O)C(C)(C(c4ccccc4)=C3c3ccccc3)C2(Br)C1=O)C(=O)O` (stereo partly drawn) [oCOm-27, (2S)-2-tert-butoxycarbonylamino-6-(3a-bromo-4,7-dimethyl-1,3,8-trioxo-5,6-diphenyl-1,3,3a,4,7,7a-hexahydro-2H-4,7-methanoisoindol-2-yl) hexanoic acid], the melting point fell in the range of 87 to 92 °C.
Same read-out and setting: under `CC(=O)OCCN1C(=O)c2c(C)c(-c3ccccc3)c(-c3ccccc3)c(C)c2C1=O` [BP-16, 4,7-Dimethyl-2-(2-acetoxyethyl)-5,6-diphenyl-1H-isoindole-1,3(2H)-dione] stands 155 °C.
Compound `Cc1c2c(c(C)c(-c3ccccc3)c1-c1ccccc1)C(=O)N(CCNC(=O)OC(C)(C)C)C2=O` [BP-20, Tert-Butyl (2-(4,7-dimethyl-1,3-dioxo-5,6-diphenylisoindolin-2-yl)ethyl)carbamate] registered a melting point of 181 to 182 °C.

For a further data set, the system named is MDCK cells. The data set is described as follows: crystal violet cell adhesion (CVCA) cell toxicity assay. The following applies: Canis lupus familiaris, MDCK, read-out: EC50 (μM), Active Compound.
For `COC(=O)[C@@H](N)CCCCN1C(=O)C2C3(C)C(=O)C(C)(C(c4ccccc4)=C3c3ccccc3)C2(Br)C1=O` (stereo partly drawn) [oCOm-30, Methyl (2S)-2-amino-6-(3a-bromo-4,7-dimethyl-1,3,8-trioxo-5,6-diphenyl-1,3,3a,4,7,7a-hexahydro-2H-4,7-methanoisoindol-2-yl)hexanoate Trifluoroacetic Acid Salt], the EC50 is greater than 100 µM.
On the same count and under the same terms, then `CC12C(=O)C(C)(C(c3ccccc3)=C1c1ccccc1)C1(Br)C(=O)N(CCCCCC(=O)O)C(=O)C21` (stereo not drawn) [oCOM-38, 6-(3a-bromo-4,7-dimethyl-1,3,8-trioxo-5,6-diphenyl-1,3,3a,4,7,7a-hexahydro-2H-4,7-methanoisoindol-2-yl)-hexanoic Acid], with greater than 100 µM.
Same read-out and setting: then `COC(=O)[C@H](CCCCN1C(=O)C2C3(C)C(=O)C(C)(C(c4ccccc4)=C3c3ccccc3)C2(Br)C1=O)NC(C)=O` (stereo partly drawn) [oCOM-41, Methyl (2S)-2-acetamido-6-(3a-bromo-4,7-dimethyl-1,3,8-trioxo-5,6-diphenyl-1,3,3a,4,7,7a-hexahydro-2H-4,7-methanoisoindol-2-yl)hexanoate], with greater than 100 µM; and `Cc1noc([C@@H](N)CCCCN2C(=O)C3C4(C)C(=O)C(C)(C(c5ccccc5)=C4c4ccccc4)C3(Br)C2=O)n1` (stereo partly drawn) [oCOM-43, (1S)-1-amino-5-(3a-bromo-4,7-dimethyl-1,3,8-trioxo-5,6-diphenyl-1,3,3a,4,7,7a-hexahydro-2H-4,7-methanoisoindol-2-yl)-1-(3-methyl-1,2,4-oxadiazol-5-yl)pentane Trifluoroacetic Acid Salt], with greater than 100 µM; and `CN(C)C(=O)[C@@H](N)CCCCN1C(=O)C2C3(C)C(=O)C(C)(C(c4ccccc4)=C3c3ccccc3)C2(Br)C1=O` (stereo partly drawn) [oCOM-36, N,N-Dimethyl (2S)-2-amino-6-(3a-bromo-4,7-dimethyl-1,3,8-trioxo-5,6-diphenyl-1,3,3a,4,7,7a-hexahydro-2H-4,7-methanoisoindol-2-yl)-hexanamide Trifluoroacetic Acid Salt], with greater than 100 µM.
`Cc1nnc([C@@H](N)CCCCN2C(=O)C3C4(C)C(=O)C(C)(C(c5ccccc5)=C4c4ccccc4)C3(Br)C2=O)o1` (stereo partly drawn) [oCOM-45, (1S)-1-Amino-5-(3a-bromo-4,7-dimethyl-1,3,8-trioxo-5,6-diphenyl-1,3,3a,4,7,7a-hexahydro-2H-4,7-methanoisoindol-2-yl)-1-(5-methyl-1,3,-oxadiazol-2-yl)pentane Trifluoroacetic Acid Salt]: the EC50 is greater than 100 µM.

The data set is the same for the next values; noted with them: Canis lupus familiaris, MDCK, read-out: EC50 (μM), Inactive Compound.
On to `Cc1c2c(c(C)c(-c3ccccc3)c1-c1ccccc1)C(=O)N(CCN)C2=O` [BP-21, 2-(4,7-Dimethyl-1,3-dioxo-5,6-diphenylisoindolin-2-yl)ethanaminium 2,2,2-trifluoroacetate, reference compound], for which the EC50 worked out at 21 µM.

The data set is the same for the next values; noted with them: read-out: EC50 (μM), Inactive Compound; MDCK cells; inactive debromo or CO depleted analogues; 37° C.
For `Cc1c2c(c(C)c(-c3ccccc3)c1-c1ccccc1)C(=O)N(CCNCCN)C2=O` [BP-23, 2-(2-(2-Aminoethyl)aminoethyl)-4,7-dimethyl-5,6-diphenyl-1H-isoindole-1,3,8(2H)-diione Bis-trifluoroacetate Salt], the EC50 was greater than 100 µM.
